Results taken from patent publication US20080051429A1, “USE OF 4-AMINO-PIPERIDINES FOR TREATING SLEEP DISORDERS” (priority 2006, published 2008).
Counter-ions that a name gives are not always drawn. Like-named read-outs stand apart in the source and are kept apart here.

Target: T1, 5-HT2A receptor (Homo sapiens, UniProt P28223)
T1 construct: expressed in transfected cells; host or cells: NIH3T3 cells, pSI expression vector
Experiment: R-SAT functional receptor assay
Format: cell-based
Conditions: for Emax: 120 h
Experimental: The functional receptor assay, Receptor Selection and Amplification Technology (R-SAT), was used (with minor modifications from that previously described U.S. Pat. No. 5,707,798) to screen compounds for efficacy at the 5-HT2A receptor. Briefly, NIH3T3 cells were grown in 96 well tissue culture plates to 70-80% confluence. Cells were transfected for 12-16 hours with plasmid DNAs using superfect (Qiagen Inc.) as per manufacture's protocols. R-SAT's were generally performed with 50 ng/well of receptor and 20 ng/well of Beta-galactosidase plasmid DNA. All receptor and G-protein constructs used were in the pSI mammalian expression vector (Promega Inc) as described in U.S. Pat. No. 5,707,798. The 5HT2A receptor gene was amplified by nested PCR from brain cDNA using the oligodeoxynucleotides based on the published sequence (see Saltzman et. al. Biochem. Biophys. Res. Comm. 181:1469-78 (1991)). Large-scale transfections, cells were transfected for 12-16 hours, then trypsinized and frozen in DMSO. Frozen cells were later thawed, plated at 10,000-40,000 cells per well of a 96 well plate that contained drug. With both methods, cells were then grown in a humidified atmosphere with 5% ambient CO2 for five days. Media was then removed from the plates and marker gene activity was measured by the addition of the beta-galactosidase substrate ONPG (in PBS with 5% NP-40). The resulting colorimetric reaction was measured in a spectrophotometric plate reader (Titertek Inc.)at […]. All data were analyzed using the computer program XLFit (IDBSm). Efficacy is the percent maximal repression compared to repression by a control compound (ritanserin in the case of 5HT2A). pIC50 is the negative of the log(IC50), where IC50 is the calculated concentration in Molar that produces 50% maximal repression.
Briefly, the 5-HT2A receptor, and the alpha subunit of the guanine nucleotide binding protein Gq were transiently transfected into NIH3T3 cells and assayed using the functional receptor assay, Receptor Selection and Amplification Technology (R-SAT) essentially as disclosed in U.S. Pat. No. 5,707,798. Each compound was screened at seven serially diluted concentrations in triplicate. Data were analyzed using least squares fit analysis with GraphPad Prism (San Diego, Calif.), and are reported normalized to percent response.
R-SAT assays (as described in Example 42) were carried out with cells transfected with receptors (listed below) to determine the receptor selectivity profile for compound 26HCH16D. 5HT2A inverse agonist data (IC50 nM; % efficacy) were derived from detailed dose response curves (7 points in triplicate).
(§1) The functional receptor assay, Receptor Selection and Amplification Technology (R-SAT), was used (with minor modifications from that previously described U.S. Pat. No. 5,707,798) to screen compounds for efficacy at the 5-HT2A receptor. The RSAT assay was conducted as described herein.
as §1, with “5,707,798, which is incorporated herein by reference in its entirety)” for “5,707,798)”

[1] = Table 5, read-out: 5HT2A pIC50 (converted)
[2] = compared to ritanserin, read-out: 5HT2A % inhibition
[3] = Table 6, read-out: 5HT2A pIC50 (converted)
[4] = read-out: Percent Efficacy, compared to ritanserin
[5] = Table 3, read-out: pIC50 (converted)
[6] = inverse agonist, read-out: pIC50 (average) (converted)

T1 sequence (P28223 whole entry): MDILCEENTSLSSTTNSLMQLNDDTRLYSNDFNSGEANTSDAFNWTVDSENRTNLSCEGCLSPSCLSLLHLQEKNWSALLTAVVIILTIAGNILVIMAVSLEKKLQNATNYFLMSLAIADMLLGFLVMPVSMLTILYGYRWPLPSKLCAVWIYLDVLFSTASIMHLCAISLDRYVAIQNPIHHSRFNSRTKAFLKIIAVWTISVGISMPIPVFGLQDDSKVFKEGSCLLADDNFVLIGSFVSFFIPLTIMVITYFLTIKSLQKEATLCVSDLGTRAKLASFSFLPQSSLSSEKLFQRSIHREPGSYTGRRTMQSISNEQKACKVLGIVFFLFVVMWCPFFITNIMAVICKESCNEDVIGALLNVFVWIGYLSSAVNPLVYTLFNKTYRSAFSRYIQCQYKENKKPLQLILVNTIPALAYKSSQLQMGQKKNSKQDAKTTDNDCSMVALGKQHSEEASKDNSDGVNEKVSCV

Compound	Emax [4]	IC50 [5]	also measured
O=C(Cc1ccc2occc2c1)N(Cc1ccc(F)cc1)C1CCN(CCC2OCCCO2)CC1 [Example 128NLS22-A, 2-Benzofuran-5-yl-N-{1-[2-(1,3-dioxan-2-yl)ethyl]piperidin-4-yl}-N-(4-fluorobenzyl)acetamide, tartrate]	–	–	Emax (read-out: 5HT2A % INH): 98%; IC50 [1]: 0.00316 µM
CC(C)COc1ccc(CN2C(=O)OC3(CCN(C)CC3)C2Cc2ccc(F)cc2)cc1 (single isomer, unassigned) [Example 78NLS62, 4-(4-fluorobenzyl)-3-(4-isobutoxybenzyl)-8-methyl-1-oxa-3,8-diaza-spiro[4.5]decan-2-one, hydrochloride]	–	–	Emax [2]: 89%
CC(C)COc1ccc(CC(=O)N(Cc2ccc(F)cc2)C2CCN(CCCN3CC(C)CC(C)C3)CC2)cc1 (stereo not drawn) [Example 103NLS45-B, N-{1-[3-(3,5-Dimethylpiperidin-1-yl)propyl]piperidin-4-yl}-N-(4-fluorobenzyl)-2-(4-isobutoxyphenyl)acetamide, dihydrochloride]	–	–	Emax (read-out: 5HT2A % INH): 84%; IC50 [1]: 0.0251 µM
CC(C)COc1ccc(CN2C(=O)OC3(CCN(CCCN4CCOCC4)CC3)C2Cc2ccc(F)cc2)cc1 (stereo not drawn) [Example 69NLS83, 4-(4-Fluorobenzyl)-3-(4-isobutoxybenzyl)-8-(3-morpholin-4-yl-propyl)-1-oxa-3,8-diaza-spiro[4.5]decan-2-one, dihydrochloride]	–	–	Emax [2]: 85%; IC50 [3]: 0.01 µM
CCN1CCC(N(Cc2ccc(Cl)cc2)C(=O)Cc2ccc(OC)cc2)CC1 [Example 42ELH85, 2-(4-Methoxyphenyl)-N-(4-chlorbenzyl)-N-(1-ethylpiperidin-4-yl)acetamide]	–	–	Percent Efficacy (compared to ritanserin): 118%
COc1ccc(CC(=O)N(Cc2ccc(C)cc2)C2CC3CCC(C2)N3C)cc1 (stereo not drawn) [Example 47AKU-21, 2-(4-Methoxyphenyl)-N-(4-methylbenzyl)-N-(8-methyl-8-aza-bicyclo[3.2.1]oct-3-yl)-acetamide]	–	–	Emax (read-out: Percent Efficacy): 117%; IC50 (pIC50, Table 3): 0.0126 µM
COc1ccc(CC(=O)N(Cc2ccc(C)cc2)C2CCN(C3CCCC3)CC2)cc1 [Example 42ELH75, 2-(4-Methoxyphenyl)-N-(4-methylbenzyl)-N-(1-cyclopentylpiperidin-4-yl)acetamide]	109%	0.00501 µM	–
COc1ccc(CC(=O)N(Cc2ccc(C)cc2)C2CCN(C)CC2)cc1C [Example 57MBT70-8D, N-((4-methylphenyl)methyl)-N-(1-methylpiperidin-4-yl)-2-(4-methoxy-3-methylphenyl)acetamide hydrochloride]	–	0.02 µM	Emax (read-out: Percent Efficacy): 119%
COc1ccc(CC(=O)N(Cc2cccc(Br)c2)C2CCNCC2)cc1 [Example 26HCH80-10, N-((3-Bromophenyl)methyl)-N-(piperidin-4-yl)-4-methoxyphenylacetamide]	–	–	Efficacy (average): 91; IC50 [6]: 0.0617 µM
COc1ccc(CN2C(=O)OC3(CCN(C)CC3)C2Cc2ccc(C)cc2)cc1 (stereo not drawn) [Example 69NLS35, 3-(4-Methoxybenzyl)-8-methyl-4-(4-methylbenzyl)-1-oxa-3,8-diaza-spiro[4.5]decan-2-one, hydrochloride]	–	–	Emax [2]: 103%; IC50 [3]: 0.000251 µM
COc1ccc(CC(=O)N(Cc2ccc(C)cc2)C2CCN(CC3CCCCC3)CC2)cc1 [Example 42ELH45, 2-(4-Methoxyphenyl)-N-(4-methylbenzyl)-N-(1-cyclohexylmethylpiperidin-4-yl)acetamide]	–	–	Percent Efficacy: 108%
COc1ccc(CC(=O)N(Cc2ccc(C)cc2)C2CCN(Cc3csc(C)n3)CC2)cc1 [Example 63ELH1A, 2-(4-Methoxyphenyl)-N-(4-methylbenzyl)-N-[1-(2-methylthiazol-4-ylmethyl)piperidin-4-yl]acetamide]	–	–	Emax (read-out: Percent Efficacy): 104%; IC50 (pIC50, Table 3): 0.00501 µM
N-(2-Phenylethyl)-N-(piperidin-4-yl)-4-methoxyphenylmethylacetamide [Example 26HCH80-2]	–	–	pIC50 (average) (inverse agonist): 7.78; Efficacy (average) (percent maximal repression compared to ritanserin): 89
COc1ccc(CNC(=O)N(Cc2ccc(C)cc2)C2CCN(C(C)(C)C)CC2)cc1 [Example 58AKU-3, N-(4-Methylbenzyl)-N-(1-t-butylpiperidin-4-yl)-N′-(4-methoxybenzyl)carbamide]	111%	0.00794 µM	–
COc1ccc(CC(=O)N(Cc2ccc(F)cc2)C2CCNCC2)cc1 [Example 26HCH80-7, N-((4-Fluorophenyl)methyl)-N-(piperidin-4-yl)-4-methoxyphenylacetamide]	–	–	Efficacy (average): 87; IC50 [6]: 0.02 µM
COc1ccc(CC(=O)N(Cc2ccc(C)cc2)C2CCNCC2)cc1 [Example 26HCH71B, N-((4-Methylphenyl)methyl)-N-(piperidin-4-yl)-4-methoxyphenylacetamide]	124%	0.0126 µM	–
CCOc1ccc(CC(=O)N(Cc2ccc(C)cc2)C2CCN(C)CC2)cc1 [Example 58AKU-4, 2-(4-Ethoxyphenyl)-N-(4-methylbenzyl)-N-(1-methylpiperidin-4-yl)acetamide]	110%	0.000251 µM	–
CCN1CCC(N(Cc2ccc(C)cc2)C(=O)Cc2ccc(OC)cc2)CC1 [Example 42ELH80, 2-(4-Methoxyphenyl)-N-(4-methylbenzyl)-N-(1-ethylpiperidin-4-yl)acetamide]	122%	0.00316 µM	–
CCOc1ccc(CC(=O)N(CCc2ccc(F)cc2)C2CCN(C)CC2)cc1 [Example 63ELH20, 2-(4-ethoxyphenyl)-N-[2-(4-fluorophenyl)ethyl]-N-(1-methylpiperidin-4-yl)acetamide]	95%	0.001 µM	–
COc1ccc(CC(=O)N(Cc2ccc(C)c(O)c2)C2CCN(C)CC2)cc1 [Example 57MBT54B, N-((3-hydroxy-4-methylphenyl)methyl)-N-(1-methylpiperidin-4-yl)-2-(4-methoxyphenyl)acetamide]	95%	0.0126 µM	–
COc1ccc(CC(=O)N(Cc2ccc(F)cc2)C2CCN(C)CC2)cc1 [Example 50ELH8, 2-(4-Methoxyphenyl)-N-(4-fluorobenzyl)-N-(1-methylpiperidin-4-yl)acetamide]	129%	0.0158 µM	–
COc1ccc(CNC(=O)N(Cc2ccc(C)cc2)C2CCN(C)CC2)cc1 [Example 47AKU-44, N-(4-Methylbenzyl)-N-(1-methylpiperidin-4-yl)-N′-(4-methoxybenzyl)-carbamide]	112%	0.00316 µM	–
COc1ccc(CC(=O)N(CCCc2ccccc2)C2CCN(C)CC2)cc1 [Example 50ELH65, 2-(4-Methoxyphenyl)-N-(3-phenyl-1-propyl)-N-(1-methylpiperidin-4-yl)acetamide]	92%	0.0126 µM	–
COc1ccc(CC(=O)N(Cc2ccc(C)cc2)C2CCN(C(C)C)CC2)cc1 [Example 42ELH79, 2-(4-Methoxyphenyl)-N-(4-methylbenzyl)-N-(1-isopropylpiperidin-4-yl)acetamide]	110%	0.00316 µM	–
Cc1ccc(CN(C(=O)Cc2ccc(Br)cc2)C2CCN(C)CC2)cc1 [Example 57MBT70-1D, N-((4-methylphenyl)methyl)-N-(1-methylpiperidin-4-yl)-2-(4-bromophenyl)acetamide hydrochloride]	–	0.0126 µM	Emax (read-out: Percent Efficacy): 120%
CCOc1ccc(CC(=O)N(Cc2ccc(F)cc2)C2CCN(C)CC2)cc1 [Example 63ELH21, 2-(4-Ethoxyphenyl)-N-(4-fluorobenzyl)-N-(1-methylpiperidin-4-yl)acetamide]	100%	0.00316 µM	–
COc1ccc(CC(=O)N(Cc2ccc(C)cc2)C2CCN(Cc3ccccc3O)CC2)cc1 [Example 26HCH79-10, N-(1-((2-Hydroxyphenyl)methyl)piperidin-4-yl)-N-((4-methylphenyl)methyl)-4-methoxyphenylacetamide]	–	–	Emax (read-out: Percent Efficacy): 102%; IC50 (pIC50, Table 3): 0.0158 µM
